Results on 1 substance are retold here after paper PMC9016803, “Mitochondria-targeted half-sandwich iridium(III)-Cp*-arylimidazophenanthroline complexes as antiproliferative and bioimaging agents against triple negative breast cancer cells MDA-MB-468” (RSC Advances, 2022).

Holding throughout (format): cell-based
Data set [1] concerns MDA-MB-468 cells. The data set is described as follows: MTT in vitro cytotoxicity assay, triple negative breast cancer cells. To be noted: MDA-MB-468, MTT, 48 h. How it is done:
The in vitro cytotoxicity of complexes IrL1–IrL5 and cisplatin were investigated using the typical 3-(4,5-dimethylthiazol-2-yl)-2,5-diphenyltetrazolium bromide (MTT) assay protocol against a panel of triple negative cancer cell line MDA-MB-468. The cells were initially incubated with the all test compounds at concentrations ranging from 0.5–50 μM for 48 h in vitro.
Cytotoxicity study of all the synthesized compounds against triple negative breast cancer cells MDA-MB-468 and immortalized human keratinocyte cell line HaCaT were done with a drug incubation period of 48 h by following standard procedure that were mentioned in ESI. ^† Preliminary studies were done to understand the mode of action of the complex to induce cytotoxicity using flow cytometric methods.
For doing the cell culture the cells were retained in DMEM media (Gibco), added with 10% fetal bovine serum (Himedia, India), 1% penicillin and streptomycin and 1% of Glutmax (Gibco, Thermo Scientific, USA) at 37°C in 5% CO2. When the cells attained 70%-80% confluency they were trypsinized using 0.25% trypsin-EDTA (Thermo Fisher Scientific, […]
In vitro cytotoxicity study was measured by standard MTT assay protocol.1 First the prepared complexes (IrL1-IrL5) were dissolved in 0.1% DMSO followed by dilution with DMEM medium. One cancer cell lines i.e. triple negative breast cancer cells (MDA-MB-468) and one normal cell line i.e. immortalized human keratinocyte cell line (HaCaT) were used for this assay. Approximately 1×10^4 cells per well were cultured in 100 μl of a growth medium in 96-well plates and then incubated under 5% CO2 atmosphere at 37°C temperature. Then the incubated cells were treated with different concentrations of the complexes in the volume of […]. The cisplatin was taken as standard positive control for this experiment. The Cells which were in the control wells, also engaged the same volume of medium containing 0.1% DMSO. After 48 h, the medium was superfluous and cell cultures were again incubated with 100 μL of MTT reagent (1 mg/ml) for 5 h at 37 °C. Then the resultant suspension was kept on micro vibrator for 10 min and the absorbance was recorded at λ = 570 nm in ELISA plate reader. The experiment was also performed in triplicate. The data were represented as the growth inhibition percentage i.e. % growth inhibition = 100 − [(AD × 100)/AB], where AD, measured absorbance in wells which contain samples and AB, measured absorbance for blank wells (cells with a medium and a vehicle). […]

Data set [2] deals with immortalized human keratinocyte cell line HaCaT. The data set is described as follows: MTT in vitro cytotoxicity assay, normal cells. The settings on record: 48 h. How it is done: Consequently, the IrL1 complex doses of 1 μM, 3 μM and 5 μM were selected for further experimental analysis. Furthermore, the possible cytotoxic effects of IrL1 on normal cell line were also examined on the immortalized human keratinocyte cell line HaCaT.
Cytotoxicity study of all the synthesized compounds against triple negative breast cancer cells MDA-MB-468 and immortalized human keratinocyte cell line HaCaT were done with a drug incubation period of 48 h by following standard procedure that were mentioned in ESI. ^† Preliminary studies were done to understand the mode of action of the complex to induce cytotoxicity using flow cytometric methods. […]
In vitro cytotoxicity study was measured by standard MTT assay protocol.1 First the prepared complexes (IrL1-IrL5) were dissolved in 0.1% DMSO followed by dilution with DMEM medium. […] Then the resultant suspension was kept on micro vibrator for 10 min and the absorbance was recorded at λ = 570 nm in ELISA plate reader. […] The data were represented as the growth inhibition percentage i.e. % growth inhibition = 100 − [(AD × 100)/AB], where AD, measured absorbance in wells which contain samples and AB, measured absorbance for blank wells (cells with a medium and a vehicle). […]

Data set [3] has as its system MDA-MB-468 cells. Kind of data set: Mitochondrial membrane potential, JC-1 staining, flow cytometry. How it is done:
The cells treated with the mitochondrial uncoupler CCCP (carbonyl cyanide m-chlorophenylhydrazone), which mediates the dissipation of mitochondrial membrane potential, served as positive control for the detection of mitochondrial dysfunction. […] Unstained control represented in Fig. 10A has been used for gating purposes. […]
(In general: A flow cytometer gives signals particle by particle.)

In data set [4] the test system is MDA-MB-468 cells. Kind of data set: ROS generation, DCFDA staining. Here is the method:
Our results indicated a dose dependent increase in ROS production in the MDA-MB-468 cells treated with IrL1 concentrations 1 μM and 3 μM. The extent of ROS production is indicated by the 2′,7′-dichlorofluorescein (DCF) formed by the deacetylation and subsequent oxidation of 2′,7′-dichlorofluorescin diacetate (DCFDA) through cellular esterases and ROS. […] ROS production was absent in untreated control. However, in the positive control, treated with H2O2, ROS production was high which is ∼99% (Fig. 11).
Colocalization study and ROS generation studies were performed using live cell lines in their log phase.

The test system of data set [5] is MDA-MB-468 cells. Kind of data set: Annexin V-FITC/PI apoptosis assay. The settings on record: 3 μM.

With “[Iridium(III)-Cp*-2-(naphthalen-1-yl)-1H-imidazo[4,5-f][1,10]phenanthroline]PF6 [IrL1]”, the concentration for half-maximal inhibition (IC50) in the data set with MDA-MB-468 cells [1] was 3.67 µM; in data set [2] it was 11.4 µM. The results for the “cells with damaged mitochondria (JC-1 monomers)” value in the data set with MDA-MB-468 cells [3] (1 μM), in the data set on MDA-MB-468 cells [3] (3 μM) and with MDA-MB-468 cells [3] (5 μM) were 27.86%, approximately 47.52% and 67.02%, respectively. Also, the DCF positive cells is 55.01% in the data set with MDA-MB-468 cells [4] (1 μM) and 70.67% in the data set on MDA-MB-468 cells [4] (3 μM). Besides, in the data set with MDA-MB-468 cells [5], the early apoptotic cells is recorded as approximately 34.89%. This substance also registered a viable cell population in the data set on MDA-MB-468 cells [5] of approximately 51.37%.

In general, IC50 refers to the midpoint of a concentration-inhibition curve. A higher IC50 goes with weaker potency in that assay.
